These results are taken from US20260085068A1, “A NOVEL CRYSTALLINE FORM OF PRITELIVIR” (Assembly Biosciences, Inc., priority 2022, published 2026).

Converted amounts (≈) assume the structure as drawn.

The series in a line: Solubility determination in aqueous vehicle (0.9% NaCl and 0.5% polysorbate 80), filtrate analyzed by HPLC. The series is classed as physicochemical. On the procedure: Sample preparation: excess Type 8 was added to the vehicle containing 0.9% NaCl and 0.5% polysorbate 80 to achieve ˜3 mg/mL suspension. The mixture was sonicated for 15 minutes, then agitated at 500 rpm at room temperature. At 24 hours, the mixture was filtrated, and filtrate was analyzed by HPLC to determine the solubility. • Instrument: Agilent 1260 • Column: ACE ultracore super C18 (100 mm*4.6 mm*2.5 μm) (P/N: CORE-25A-1046U) • Wavelength: 234 nm • Column Temperature: 20° C. • Column Flow: 1.0 mL/min • Acquisition time: 25 min • Injection volume: 5 μL • Retention time: ˜14 min • Mobile Phase A: 5 mM (NH4)2HPO4 and 5 mM of NH4H2PO4 in H2O • Mobile Phase B: ACN [table] The solubility of Form C (hemihydrate as disclosed in WO 2018/096170) was determined in the same media used to determine the solubility of Type 8 as described above. Sample preparation: excess Form C was added to the vehicle containing 0.9% NaCl and 0.5% polysorbate 80. The mixture was sonicated for 15 minutes, then agitated at 500 rpm at room temperature. At 24 hours, the mixture was filtrated, and filtrate was analyzed by HPLC to determine the solubility.

With `Cc1nc(N(C)C(=O)Cc2ccc(-c3ccccn3)cc2)sc1S(N)(=O)=O` [Type 8, N-methyl-N-(4-methyl-5-sulfamoylthiazol-2-yl)-2-(4-(pyridin-2-yl)phenyl) acetamide], for the setting “aqueous vehicle (0.9% NaCl and 0.5% polysorbate 80), aqueous with cosolvent or surfactant or cyclodextrin, thermodynamic from solid, RT, 0.9% NaCl and 0.5% polysorbate 80”, the solubility (as a rule, the dissolved amount per volume that the medium holds) at 24 h was about 70.7 µg/mL (≈ 176 µM). The solubility result (room temperature, aqueous media containing 0.9% NaCl and 0.5% polysorbate 80, at 24 hours) was “around 70.7 μg/mL”.
